± gives the expanded uncertainty stated by the source.
Experiment: xn = mol fraction of the nth substance listed
Conditions: 100 kPa, Liquid; for mass density: Vibrating tube method; for viscosity: Falling or rolling sphere viscometry

For `CCCCCCCCCCC` [undecane] + CCCCCCO, which mass density (343.15 K, x1 = 0.6004) is on record?
Its mass density is 723 ± 1.5 kg/m3.

And the mass density (343.15 K, x1 = 0.6989)?
Its mass density is 716.95 ± 1.4 kg/m3.

And the mass density (343.15 K, x1 = 0.8001)?
Its mass density is 711.44 ± 1.4 kg/m3.

And the mass density (343.15 K, x1 = 0.8991)?
The mass density was 706.79 ± 1.4 kg/m3.

What about the mass density (343.15 K, x1 = 1) of the same compound?
The mass density was 703.22 ± 1.4 kg/m3.

And the viscosity (348.15 K, x1 = 0.1011)?
The viscosity was 1.054 ± 0.014 mPa·s.

And the viscosity (348.15 K, x1 = 0.1989)?
Its viscosity is 0.934 ± 0.013 mPa·s.

What about the viscosity (348.15 K, x1 = 0.2998) of the same compound?
Its viscosity is 0.828 ± 0.011 mPa·s.

What about the viscosity (348.15 K, x1 = 0.4001) of the same compound?
The viscosity was 0.75 ± 0.01 mPa·s.

What about the viscosity (348.15 K, x1 = 0.4994) of the same compound?
Its viscosity is 0.687 ± 0.009 mPa·s.

And the viscosity (348.15 K, x1 = 0.6004)?
Its viscosity is 0.652 ± 0.009 mPa·s.

And the viscosity (348.15 K, x1 = 0.6989)?
Its viscosity is 0.607 ± 0.008 mPa·s.

And the viscosity (348.15 K, x1 = 0.8001)?
The viscosity was 0.58 ± 0.008 mPa·s.

And the viscosity (348.15 K, x1 = 0.8991)?
The viscosity was 0.571 ± 0.008 mPa·s.

What about the viscosity (348.15 K, x1 = 1) of the same compound?
Its viscosity is 0.549 ± 0.007 mPa·s.

What about the mass density (348.15 K, x1 = 0.1011) of the same compound?
Its mass density is 764.12 ± 1.5 kg/m3.

And the mass density (348.15 K, x1 = 0.1989)?
The mass density was 752.83 ± 1.5 kg/m3.

And the mass density (348.15 K, x1 = 0.2998)?
Its mass density is 742.54 ± 1.5 kg/m3.

And the mass density (348.15 K, x1 = 0.4001)?
The mass density was 733.66 ± 1.5 kg/m3.

And the mass density (348.15 K, x1 = 0.4994)?
The mass density was 725.98 ± 1.5 kg/m3.

And the mass density (348.15 K, x1 = 0.6004)?
The mass density was 718.97 ± 1.5 kg/m3.

What about the mass density (348.15 K, x1 = 0.6989) of the same compound?
The mass density was 712.94 ± 1.4 kg/m3.

And the mass density (348.15 K, x1 = 0.8001)?
The mass density was 707.47 ± 1.4 kg/m3.

What about the mass density (348.15 K, x1 = 0.8991) of the same compound?
The mass density was 702.87 ± 1.4 kg/m3.

What about the mass density (348.15 K, x1 = 1) of the same compound?
The mass density was 699.47 ± 1.4 kg/m3.

And the viscosity (353.15 K, x1 = 0.1011)?
Its viscosity is 0.981 ± 0.013 mPa·s.

And the viscosity (353.15 K, x1 = 0.1989)?
The viscosity was 0.855 ± 0.011 mPa·s.

And the viscosity (353.15 K, x1 = 0.2998)?
Its viscosity is 0.765 ± 0.01 mPa·s.

What about the viscosity (353.15 K, x1 = 0.4001) of the same compound?
The viscosity was 0.696 ± 0.009 mPa·s.

And the viscosity (353.15 K, x1 = 0.4994)?
Its viscosity is 0.642 ± 0.009 mPa·s.

What about the viscosity (353.15 K, x1 = 0.6004) of the same compound?
Its viscosity is 0.611 ± 0.008 mPa·s.

And the viscosity (353.15 K, x1 = 0.6989)?
Its viscosity is 0.572 ± 0.008 mPa·s.

What about the viscosity (353.15 K, x1 = 0.8001) of the same compound?
The viscosity was 0.546 ± 0.007 mPa·s.

What about the viscosity (353.15 K, x1 = 0.8991) of the same compound?
Its viscosity is 0.54 ± 0.007 mPa·s.

What about the viscosity (353.15 K, x1 = 1) of the same compound?
The viscosity was 0.522 ± 0.007 mPa·s.

What about the mass density (353.15 K, x1 = 0.1011) of the same compound?
Its mass density is 760.07 ± 1.5 kg/m3.

And the mass density (353.15 K, x1 = 0.1989)?
Its mass density is 748.76 ± 1.5 kg/m3.

And the mass density (353.15 K, x1 = 0.2998)?
Its mass density is 738.45 ± 1.5 kg/m3.

What about the mass density (353.15 K, x1 = 0.4001) of the same compound?
The mass density was 729.57 ± 1.5 kg/m3.

And the mass density (353.15 K, x1 = 0.4994)?
Its mass density is 721.9 ± 1.5 kg/m3.

What about the mass density (353.15 K, x1 = 0.6004) of the same compound?
Its mass density is 714.9 ± 1.4 kg/m3.

What about the mass density (353.15 K, x1 = 0.6989) of the same compound?
Its mass density is 708.9 ± 1.4 kg/m3.

What about the mass density (353.15 K, x1 = 0.8001) of the same compound?
Its mass density is 703.47 ± 1.4 kg/m3.

And the mass density (353.15 K, x1 = 0.8991)?
The mass density was 698.94 ± 1.4 kg/m3.

And the mass density (353.15 K, x1 = 1)?
Its mass density is 695.72 ± 1.4 kg/m3.

And the viscosity (358.15 K, x1 = 0.1011)?
Its viscosity is 0.895 ± 0.012 mPa·s.

What about the viscosity (358.15 K, x1 = 0.1989) of the same compound?
Its viscosity is 0.787 ± 0.011 mPa·s.

What about the viscosity (358.15 K, x1 = 0.2998) of the same compound?
Its viscosity is 0.707 ± 0.009 mPa·s.

What about the viscosity (358.15 K, x1 = 0.4001) of the same compound?
The viscosity was 0.649 ± 0.009 mPa·s.

And the viscosity (358.15 K, x1 = 0.4994)?
The viscosity was 0.6 ± 0.008 mPa·s.

And the viscosity (358.15 K, x1 = 0.6004)?
Its viscosity is 0.573 ± 0.008 mPa·s.

And the viscosity (358.15 K, x1 = 0.6989)?
The viscosity was 0.54 ± 0.007 mPa·s.

And the viscosity (358.15 K, x1 = 0.8001)?
Its viscosity is 0.516 ± 0.007 mPa·s.

And the viscosity (358.15 K, x1 = 0.8991)?
The viscosity was 0.512 ± 0.007 mPa·s.

And the viscosity (358.15 K, x1 = 1)?
The viscosity was 0.497 ± 0.007 mPa·s.

And the mass density (358.15 K, x1 = 0.1011)?
Its mass density is 755.96 ± 1.5 kg/m3.

And the mass density (358.15 K, x1 = 0.1989)?
Its mass density is 744.62 ± 1.5 kg/m3.

What about the mass density (358.15 K, x1 = 0.2998) of the same compound?
Its mass density is 734.31 ± 1.5 kg/m3.

And the mass density (358.15 K, x1 = 0.4001)?
Its mass density is 725.43 ± 1.5 kg/m3.

What about the mass density (358.15 K, x1 = 0.4994) of the same compound?
The mass density was 717.76 ± 1.4 kg/m3.

And the mass density (358.15 K, x1 = 0.6004)?
The mass density was 710.79 ± 1.4 kg/m3.

And the mass density (358.15 K, x1 = 0.6989)?
The mass density was 704.82 ± 1.4 kg/m3.

And the mass density (358.15 K, x1 = 0.8001)?
The mass density was 699.43 ± 1.4 kg/m3.

What about the mass density (358.15 K, x1 = 0.8991) of the same compound?
The mass density was 694.99 ± 1.4 kg/m3.

And the mass density (358.15 K, x1 = 1)?
Its mass density is 691.96 ± 1.4 kg/m3.

What about the viscosity (363.15 K, x1 = 0.1011) of the same compound?
The viscosity was 0.82 ± 0.011 mPa·s.

What about the viscosity (363.15 K, x1 = 0.1989) of the same compound?
The viscosity was 0.726 ± 0.01 mPa·s.

What about the viscosity (363.15 K, x1 = 0.2998) of the same compound?
The viscosity was 0.657 ± 0.009 mPa·s.

And the viscosity (363.15 K, x1 = 0.4001)?
Its viscosity is 0.605 ± 0.008 mPa·s.

And the viscosity (363.15 K, x1 = 0.4994)?
Its viscosity is 0.562 ± 0.008 mPa·s.

And the viscosity (363.15 K, x1 = 0.6004)?
The viscosity was 0.54 ± 0.007 mPa·s.

And the viscosity (363.15 K, x1 = 0.6989)?
Its viscosity is 0.512 ± 0.007 mPa·s.

And the viscosity (363.15 K, x1 = 0.8001)?
The viscosity was 0.49 ± 0.007 mPa·s.

What about the viscosity (363.15 K, x1 = 0.8991) of the same compound?
The viscosity was 0.487 ± 0.007 mPa·s.

And the viscosity (363.15 K, x1 = 1)?
Its viscosity is 0.475 ± 0.006 mPa·s.

What about the mass density (363.15 K, x1 = 0.1011) of the same compound?
The mass density was 751.78 ± 1.5 kg/m3.

What about the mass density (363.15 K, x1 = 0.1989) of the same compound?
Its mass density is 740.43 ± 1.5 kg/m3.

What about the mass density (363.15 K, x1 = 0.2998) of the same compound?
Its mass density is 730.12 ± 1.5 kg/m3.

And the mass density (363.15 K, x1 = 0.4001)?
The mass density was 721.24 ± 1.5 kg/m3.

And the mass density (363.15 K, x1 = 0.4994)?
The mass density was 713.59 ± 1.4 kg/m3.

And the mass density (363.15 K, x1 = 0.6004)?
The mass density was 706.64 ± 1.4 kg/m3.

What about the mass density (363.15 K, x1 = 0.6989) of the same compound?
Its mass density is 700.7 ± 1.4 kg/m3.

What about the mass density (363.15 K, x1 = 0.8001) of the same compound?
The mass density was 695.37 ± 1.4 kg/m3.

And the mass density (363.15 K, x1 = 0.8991)?
Its mass density is 691.02 ± 1.4 kg/m3.

And the mass density (363.15 K, x1 = 1)?
The mass density was 688.18 ± 1.4 kg/m3.
